The source made the active and inactive calls.

What is called EC50 is the concentration giving half of the maximal effect. The IC50 is the concentration needed to halve the response being measured. Usually CC50 stands for the concentration at which the toxic effect on the cells reaches its halfway point.

Assay [1] is described as follows: Luminescence Cell-Based Dose Response HTS to Identify Activators of Luciferase Translation or Activity in H4 […] Cells. [Related pubchem assays: 1829 (Project Summary), 1814 (Primary HTS)]. It counts as functional.
The nature of assay [2]: Luminescence Cell-Based Dose Confirmation HTS to Identify Activators of 5'UTR Stem-Loop Driven Alpha-Synuclein mRNA Translation in H4 Neuroglioblastoma Cells. [Related pubchem assays: 1829 (Project Summary), 1814 (Primary HTS)]. It counts as functional.
Another assay has as its system H4. Nature of the assay: Luminescence Cell-Based Dose Response HTS to Identify Activators of 5'UTR Stem-Loop Driven Prion Protein mRNA Translation in H4 Neuroglioblastoma Cells. [Related pubchem assays: 1829 (Project Summary), 1814 (Primary HTS)]. Type of assay: functional. Conditions: Homo sapiens.
Assay [3] can be described thus: Luminescence Cell-Based Dose Response to Identify Activators of Luciferase Translation or Activity in H4-C Neuroglioblastoma Cells. [Related pubchem assays: 1829 (Project Summary), 1814 (Primary HTS)]. Type of assay: functional.
Assay [4] in a line: Luminescence Cell-Based Dose Response to Identify Activators of 5'UTR Stem-Loop Driven Prion Protein mRNA Translation in H4-C Neuroglioblastoma Cells. [Related pubchem assays: 1829 (Project Summary), 1814 (Primary HTS)]. It counts as functional.
The nature of assay [5]: Luminescence Cell-Based Dose Confirmation to Identify Activators of 5'UTR Stem-Loop Driven Alpha-Synuclein mRNA Translation in H4 Neuroglioblastoma Cells. [Related pubchem assays: 1829 (Project Summary), 1814 (Primary HTS)]. Type of assay: functional.
The target of the next assay is Aspartyl aminopeptidase (Plasmodium falciparum 3D7, UniProt Q8I2J3).
The next assay has as its target Procathepsin L (Homo sapiens, UniProt P07711).
In assay [6] the test system is Streptococcus. Nature of the assay: Luminescence Microorganism-Based Dose Response Follow up to Identify Compounds Cytotoxic to Streptococcus. [Related pubchem assays: 1677 (Project Summary), 1915, 1914, 1902 (Retest at Dose), 1900 (Counter Screen), 1662 (Primary HTS)]. Type of assay: functional, organism-based.
The target in a further assay is T1, Streptokinase A (Streptococcus pyogenes serotype M1, UniProt P10520).
T1 sequence (P10520 whole entry): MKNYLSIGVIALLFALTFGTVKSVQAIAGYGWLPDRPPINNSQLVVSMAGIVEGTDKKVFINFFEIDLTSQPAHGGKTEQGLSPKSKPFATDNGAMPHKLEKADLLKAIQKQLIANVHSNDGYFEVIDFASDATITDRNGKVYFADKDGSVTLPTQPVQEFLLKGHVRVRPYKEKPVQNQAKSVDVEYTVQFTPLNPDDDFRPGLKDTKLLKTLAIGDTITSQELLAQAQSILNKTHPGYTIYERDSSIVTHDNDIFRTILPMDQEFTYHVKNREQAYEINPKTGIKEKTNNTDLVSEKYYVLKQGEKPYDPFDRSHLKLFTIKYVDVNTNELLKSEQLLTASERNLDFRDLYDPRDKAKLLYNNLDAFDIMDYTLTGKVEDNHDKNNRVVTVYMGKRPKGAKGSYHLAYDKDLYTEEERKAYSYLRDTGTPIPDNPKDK
Nature of the assay: viability-normalized secreted streptokinase activity reduction – plasminogen activation absorbance, OD405, dose response (AID 1914).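 Note: secreted streptokinase activity via plasminogen activation per viability signal from cell pellet.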 Type of assay: functional, Streptococcus pyogenes M1 GAS.

The test system of assay [7] is Streptococcus. Nature of the assay: GAS UMAA2166 growth inhibition – luminescence, BacTiterGlo, counter-screen for streptokinase expression inhibitor project, dose response (AID 1915).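 Note: potency for reduction of bacterial viability or growth.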 It counts as functional, organism-based.
Assay [8] addresses T2, Heat shock factor protein 1 (Mus musculus, UniProt P38532).
T2 sequence (P38532 whole entry): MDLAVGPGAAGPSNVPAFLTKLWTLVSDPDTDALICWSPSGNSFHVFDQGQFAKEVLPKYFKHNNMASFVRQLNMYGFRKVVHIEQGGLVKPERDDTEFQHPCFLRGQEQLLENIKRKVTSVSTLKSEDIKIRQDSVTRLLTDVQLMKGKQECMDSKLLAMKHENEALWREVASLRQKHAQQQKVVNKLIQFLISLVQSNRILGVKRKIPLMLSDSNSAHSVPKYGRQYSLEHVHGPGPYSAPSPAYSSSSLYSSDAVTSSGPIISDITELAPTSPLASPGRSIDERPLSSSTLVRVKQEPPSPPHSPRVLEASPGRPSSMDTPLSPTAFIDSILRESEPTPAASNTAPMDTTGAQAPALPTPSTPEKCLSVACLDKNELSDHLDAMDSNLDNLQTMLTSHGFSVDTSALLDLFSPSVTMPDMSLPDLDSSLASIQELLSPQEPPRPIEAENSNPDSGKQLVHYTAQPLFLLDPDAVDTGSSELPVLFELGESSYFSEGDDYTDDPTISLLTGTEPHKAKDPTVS
Nature of the assay: decrease of HSF1-responsive luciferase luminescence – cell-based, NIH3T3, dose retest, confirmation (AID 2382).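 Note: NIH3T3 fibroblasts with HSF1-driven luciferase reporter stressed by proteasome inhibitor MG132; luminescence from HSF1-driven luciferase expression after 8 hours of MG132 stress.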 It counts as functional.

The subject of assay [9] is Streptococcus sp. 'group A'. Nature of the assay: Streptococcus pyogenes SK(-)GAS viability under kanamycin – luminescence, BacTiterGlo, confirmation, counter-screen for streptokinase expression inhibitor project, dose response (AID 1900). It counts as functional, organism-based.
For the next assay, the target named is Cytochrome P450 2D6 (Homo sapiens, UniProt P10635). Nature of the assay: qHTS Assay for Inhibitors and Substrates of Cytochrome P450 2D6. [Related pubchem assays: 410 ]. Conditions: read-out: Potency. It counts as ADME. A general note: Quantitative high-throughput screening tests each substance at several concentrations.
Cytochrome P450 2D6, sequence (P10635 whole entry): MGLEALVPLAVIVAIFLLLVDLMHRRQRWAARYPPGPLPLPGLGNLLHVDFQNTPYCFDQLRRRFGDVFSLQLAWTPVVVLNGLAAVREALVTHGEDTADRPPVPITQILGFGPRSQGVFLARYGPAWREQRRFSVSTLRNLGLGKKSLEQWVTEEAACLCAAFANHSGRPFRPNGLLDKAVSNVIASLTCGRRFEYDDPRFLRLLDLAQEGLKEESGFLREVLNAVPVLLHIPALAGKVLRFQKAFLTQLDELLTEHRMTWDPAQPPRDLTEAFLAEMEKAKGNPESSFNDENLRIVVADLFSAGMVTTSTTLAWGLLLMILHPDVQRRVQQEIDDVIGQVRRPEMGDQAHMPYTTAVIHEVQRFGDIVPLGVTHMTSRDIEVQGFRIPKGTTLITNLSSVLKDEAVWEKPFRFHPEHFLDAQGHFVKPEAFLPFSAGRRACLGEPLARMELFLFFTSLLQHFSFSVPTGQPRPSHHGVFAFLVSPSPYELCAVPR
In assay [10] the target is T3, Peroxisome proliferator-activated receptor gamma/Nuclear receptor corepressor 2 (Homo sapiens, UniProt P37231+Q9Y618). Nature of the assay: Counterscreen for NR2E3 inverse agonists: TR-FRET-based biochemical high throughput dose response assay to identify inverse agonists of the interaction between peroxisome proliferator-activated receptor gamma (PPARg) and nuclear receptor co-repressor 2 (NCOR2). Type of assay: functional.
T3 sequence (P37231 whole entry): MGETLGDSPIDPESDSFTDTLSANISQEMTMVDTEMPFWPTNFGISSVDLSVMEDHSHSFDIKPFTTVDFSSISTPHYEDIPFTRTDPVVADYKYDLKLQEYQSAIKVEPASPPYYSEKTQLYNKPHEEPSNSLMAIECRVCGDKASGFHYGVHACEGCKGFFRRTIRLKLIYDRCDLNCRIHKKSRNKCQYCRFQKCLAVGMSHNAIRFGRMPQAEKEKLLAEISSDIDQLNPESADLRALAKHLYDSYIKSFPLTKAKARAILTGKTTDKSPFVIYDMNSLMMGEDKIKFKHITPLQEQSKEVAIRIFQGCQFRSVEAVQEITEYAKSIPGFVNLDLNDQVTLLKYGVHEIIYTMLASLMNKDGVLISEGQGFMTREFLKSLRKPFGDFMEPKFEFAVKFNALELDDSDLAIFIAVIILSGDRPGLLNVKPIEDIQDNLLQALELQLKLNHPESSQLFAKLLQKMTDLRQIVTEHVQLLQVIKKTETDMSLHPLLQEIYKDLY
T3 sequence (Q9Y618 whole entry): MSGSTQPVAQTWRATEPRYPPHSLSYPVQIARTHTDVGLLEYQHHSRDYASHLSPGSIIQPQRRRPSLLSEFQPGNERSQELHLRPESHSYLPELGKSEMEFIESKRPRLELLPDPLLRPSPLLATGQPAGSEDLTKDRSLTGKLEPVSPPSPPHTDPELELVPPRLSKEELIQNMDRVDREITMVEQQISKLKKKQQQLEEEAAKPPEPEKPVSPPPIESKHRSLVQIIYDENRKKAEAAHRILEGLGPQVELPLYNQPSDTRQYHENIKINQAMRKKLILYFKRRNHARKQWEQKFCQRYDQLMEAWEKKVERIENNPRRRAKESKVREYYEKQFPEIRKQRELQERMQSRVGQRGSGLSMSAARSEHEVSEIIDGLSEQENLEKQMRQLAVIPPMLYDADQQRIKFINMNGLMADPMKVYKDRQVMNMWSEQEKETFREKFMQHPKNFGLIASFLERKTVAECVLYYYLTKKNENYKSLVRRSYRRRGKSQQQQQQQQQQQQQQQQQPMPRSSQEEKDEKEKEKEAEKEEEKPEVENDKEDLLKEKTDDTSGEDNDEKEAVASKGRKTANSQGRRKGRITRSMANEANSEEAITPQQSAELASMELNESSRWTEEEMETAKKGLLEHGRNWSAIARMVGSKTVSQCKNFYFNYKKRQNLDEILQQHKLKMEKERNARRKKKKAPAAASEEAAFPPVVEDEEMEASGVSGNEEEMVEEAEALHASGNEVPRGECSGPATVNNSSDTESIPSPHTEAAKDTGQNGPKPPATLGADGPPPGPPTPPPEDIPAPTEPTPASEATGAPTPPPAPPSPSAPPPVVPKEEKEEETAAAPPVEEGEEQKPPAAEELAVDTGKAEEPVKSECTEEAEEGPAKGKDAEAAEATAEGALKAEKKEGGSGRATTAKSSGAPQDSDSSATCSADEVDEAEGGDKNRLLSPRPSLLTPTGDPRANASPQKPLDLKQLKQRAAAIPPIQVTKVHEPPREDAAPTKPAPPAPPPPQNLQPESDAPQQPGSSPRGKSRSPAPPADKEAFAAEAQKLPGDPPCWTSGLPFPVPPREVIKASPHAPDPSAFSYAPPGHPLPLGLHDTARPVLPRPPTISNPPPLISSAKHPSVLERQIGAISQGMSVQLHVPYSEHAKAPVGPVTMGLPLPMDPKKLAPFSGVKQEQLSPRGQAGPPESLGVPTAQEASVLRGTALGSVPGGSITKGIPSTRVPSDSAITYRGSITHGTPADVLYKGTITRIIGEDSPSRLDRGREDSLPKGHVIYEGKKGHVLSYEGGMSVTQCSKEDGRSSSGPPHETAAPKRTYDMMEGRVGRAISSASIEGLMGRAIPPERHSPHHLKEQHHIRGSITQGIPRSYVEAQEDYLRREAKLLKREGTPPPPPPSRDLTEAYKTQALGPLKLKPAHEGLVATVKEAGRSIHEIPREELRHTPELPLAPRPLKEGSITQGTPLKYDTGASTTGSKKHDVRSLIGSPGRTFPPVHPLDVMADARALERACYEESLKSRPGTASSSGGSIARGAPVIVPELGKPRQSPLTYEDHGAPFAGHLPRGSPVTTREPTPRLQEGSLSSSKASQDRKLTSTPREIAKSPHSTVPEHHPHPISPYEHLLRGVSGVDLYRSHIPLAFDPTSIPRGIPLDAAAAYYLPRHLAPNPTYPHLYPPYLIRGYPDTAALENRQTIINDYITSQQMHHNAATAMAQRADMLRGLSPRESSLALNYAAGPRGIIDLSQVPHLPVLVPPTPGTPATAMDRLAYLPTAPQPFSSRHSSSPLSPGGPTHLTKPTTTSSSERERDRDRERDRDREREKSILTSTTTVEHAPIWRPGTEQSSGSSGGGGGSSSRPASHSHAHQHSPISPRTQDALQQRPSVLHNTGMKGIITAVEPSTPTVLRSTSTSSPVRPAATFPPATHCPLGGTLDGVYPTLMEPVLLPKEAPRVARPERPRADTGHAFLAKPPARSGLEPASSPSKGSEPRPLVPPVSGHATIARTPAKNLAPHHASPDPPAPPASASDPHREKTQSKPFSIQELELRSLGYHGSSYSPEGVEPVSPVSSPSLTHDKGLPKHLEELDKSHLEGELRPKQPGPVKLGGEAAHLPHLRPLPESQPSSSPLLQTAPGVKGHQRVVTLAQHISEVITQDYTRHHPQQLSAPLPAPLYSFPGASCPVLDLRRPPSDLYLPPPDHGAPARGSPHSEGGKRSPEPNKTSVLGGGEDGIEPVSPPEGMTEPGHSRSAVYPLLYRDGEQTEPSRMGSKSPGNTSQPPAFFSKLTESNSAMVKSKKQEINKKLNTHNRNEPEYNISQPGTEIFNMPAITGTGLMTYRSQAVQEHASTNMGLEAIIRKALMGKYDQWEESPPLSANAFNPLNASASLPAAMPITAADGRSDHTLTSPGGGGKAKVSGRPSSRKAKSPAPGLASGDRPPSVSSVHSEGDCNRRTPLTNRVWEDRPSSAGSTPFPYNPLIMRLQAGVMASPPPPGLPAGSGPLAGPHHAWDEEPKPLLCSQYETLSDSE

The target of assay [11] is T4, Photoreceptor-specific nuclear receptor (Homo sapiens, UniProt Q9Y5X4). Nature of the assay: ligands suppressing NR2E3 nuclear receptor activity – biochemical, TR-FRET, dose response (AID 463256). Type of assay: functional.
T4 sequence (Q9Y5X4 whole entry): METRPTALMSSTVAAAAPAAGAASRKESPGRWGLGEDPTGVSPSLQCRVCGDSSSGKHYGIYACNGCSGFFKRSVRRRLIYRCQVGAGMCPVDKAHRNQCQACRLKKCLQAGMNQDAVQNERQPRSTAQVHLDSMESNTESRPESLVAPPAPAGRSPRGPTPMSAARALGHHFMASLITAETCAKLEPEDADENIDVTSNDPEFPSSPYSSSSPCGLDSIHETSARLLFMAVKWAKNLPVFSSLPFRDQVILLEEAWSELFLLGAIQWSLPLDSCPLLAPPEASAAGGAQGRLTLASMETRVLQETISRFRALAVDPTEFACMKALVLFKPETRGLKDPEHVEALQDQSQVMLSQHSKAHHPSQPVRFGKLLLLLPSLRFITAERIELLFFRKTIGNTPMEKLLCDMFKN
The target in assay [12] is Benomyl/methotrexate resistance protein (Candida albicans, UniProt P28873). Nature of the assay: Candida albicans Mdr1 pump inhibition curves – singleplex, Cherry Pick1 hits, dose response (AID 588608). Type of assay: functional.
Benomyl/methotrexate resistance protein, sequence (P28873 whole entry): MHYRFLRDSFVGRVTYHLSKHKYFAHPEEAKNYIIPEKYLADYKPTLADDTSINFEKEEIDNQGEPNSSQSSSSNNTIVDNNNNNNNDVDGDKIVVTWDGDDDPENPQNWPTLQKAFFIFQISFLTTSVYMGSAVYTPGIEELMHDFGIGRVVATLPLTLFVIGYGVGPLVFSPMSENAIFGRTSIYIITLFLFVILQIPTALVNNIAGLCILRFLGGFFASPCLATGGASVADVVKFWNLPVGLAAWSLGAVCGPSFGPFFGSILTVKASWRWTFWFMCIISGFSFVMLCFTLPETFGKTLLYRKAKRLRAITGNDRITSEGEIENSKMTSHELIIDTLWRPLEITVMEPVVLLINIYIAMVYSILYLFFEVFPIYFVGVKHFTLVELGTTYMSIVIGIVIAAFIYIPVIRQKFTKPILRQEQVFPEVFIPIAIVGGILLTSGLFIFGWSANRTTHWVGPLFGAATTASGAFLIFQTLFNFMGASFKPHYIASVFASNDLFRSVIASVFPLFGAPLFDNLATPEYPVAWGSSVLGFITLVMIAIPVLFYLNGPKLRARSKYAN
In assay [13] the target is T3, Peroxisome proliferator-activated receptor gamma/Nuclear receptor corepressor 2. It counts as functional.
The target in assay [14] is Induced myeloid leukemia cell differentiation protein Mcl-1 (Homo sapiens, UniProt Q07820). Type of assay: functional.
The next assay addresses Large T antigen (Simian virus 40, UniProt P03070). Type of assay: functional, Betapolyomavirus macacae.
Assay [15] concerns the target T4, Photoreceptor-specific nuclear receptor. Type of assay: functional.
Assay [16] has as its target T5, Calpain-2 catalytic subunit (Sus scrofa, UniProt P43367).
T5 sequence (P43367 whole entry): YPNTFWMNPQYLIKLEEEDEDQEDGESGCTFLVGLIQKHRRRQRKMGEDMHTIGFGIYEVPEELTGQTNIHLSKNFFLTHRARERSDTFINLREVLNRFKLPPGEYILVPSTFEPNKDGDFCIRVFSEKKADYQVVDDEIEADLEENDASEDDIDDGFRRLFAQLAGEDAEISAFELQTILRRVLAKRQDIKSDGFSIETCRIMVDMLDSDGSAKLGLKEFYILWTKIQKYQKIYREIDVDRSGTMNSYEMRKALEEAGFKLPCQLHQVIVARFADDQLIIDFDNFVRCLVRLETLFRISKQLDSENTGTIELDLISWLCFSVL
Nature of the assay: m-calpain protease blockers, concentration series – biochemical, fluorogenic peptide substrate, dose response (AID 1420). Type of assay: functional.

Another assay addresses Ephrin type-A receptor 4 (Mus musculus, UniProt Q03137). Nature of the assay: EphA4 ligand-binding antagonists – biochemical, colorimetric, mouse EphA4, primary screen (AID 689). It counts as functional.
Assay [17] is described as follows: viability loss in Vero cells – cytotoxicity control for Vif-APOBEC3G degradation inhibitor project, dose response (AID 1117358). Type of assay: functional. To be noted: Vero.
In another assay the target is T6, NADPH oxidase 1 (Homo sapiens, UniProt Q9Y5S8).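 Note: Cell-based assay with luminescence read-out, IC50 derived from inhibitor dose-response curves; intracellular ROS from endogenous NOX1 in intact HT29 colon cancer cells; potency of inhibitors that lower the ROS luminescence signal.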
T6 sequence (Q9Y5S8 whole entry): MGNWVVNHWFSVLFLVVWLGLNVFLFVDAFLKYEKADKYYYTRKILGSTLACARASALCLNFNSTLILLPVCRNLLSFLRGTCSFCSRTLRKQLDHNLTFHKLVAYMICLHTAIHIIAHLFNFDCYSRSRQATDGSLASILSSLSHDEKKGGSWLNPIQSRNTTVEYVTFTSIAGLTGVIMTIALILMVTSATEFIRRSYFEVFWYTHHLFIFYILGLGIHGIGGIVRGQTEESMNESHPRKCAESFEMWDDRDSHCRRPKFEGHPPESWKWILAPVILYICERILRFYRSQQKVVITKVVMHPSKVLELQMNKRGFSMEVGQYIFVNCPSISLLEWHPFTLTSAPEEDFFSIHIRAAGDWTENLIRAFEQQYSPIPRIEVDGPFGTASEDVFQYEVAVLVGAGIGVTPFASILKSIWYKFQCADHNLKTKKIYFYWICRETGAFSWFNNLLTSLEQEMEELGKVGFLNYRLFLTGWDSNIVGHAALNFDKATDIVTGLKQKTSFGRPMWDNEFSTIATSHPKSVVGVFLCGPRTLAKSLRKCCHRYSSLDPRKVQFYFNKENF
It counts as functional, cell-based.

For another assay, the target named is Cytochrome P450 2C9 (Homo sapiens, UniProt P11712). Conditions: Potency.
The target of a further assay is Cytochrome P450 3A4 (Homo sapiens, UniProt P08684). To be noted: Potency.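 Note: confirmatory qHTS run detecting inhibitors and substrates of CYP3A4.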
Cytochrome P450 3A4, sequence (P08684 whole entry): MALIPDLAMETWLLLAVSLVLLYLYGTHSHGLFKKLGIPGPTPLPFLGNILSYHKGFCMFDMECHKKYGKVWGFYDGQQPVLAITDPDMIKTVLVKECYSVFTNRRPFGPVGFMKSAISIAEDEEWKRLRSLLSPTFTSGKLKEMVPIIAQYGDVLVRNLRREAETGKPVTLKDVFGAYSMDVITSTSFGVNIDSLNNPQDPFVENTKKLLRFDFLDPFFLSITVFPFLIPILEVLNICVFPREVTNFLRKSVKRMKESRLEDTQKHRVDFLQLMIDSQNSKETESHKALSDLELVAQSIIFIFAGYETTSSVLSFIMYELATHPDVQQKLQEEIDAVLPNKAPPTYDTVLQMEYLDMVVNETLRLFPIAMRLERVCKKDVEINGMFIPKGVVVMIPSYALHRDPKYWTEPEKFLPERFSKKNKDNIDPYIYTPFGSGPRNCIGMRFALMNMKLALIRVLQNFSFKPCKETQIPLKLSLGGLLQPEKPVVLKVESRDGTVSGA

Take `O=C(/C=C(/c1ccc(Cl)cc1)n1cncn1)c1ccccc1`: the EC50 is on record as > 120 µM (not active) in [1]; > 120 µM (not active) in assay [2]; > 120 µM (not active) in the assay with H4; > 12 µM (not active) in assay [3]; > 12 µM (not active) in assay [4]; > 12 µM (not active) in assay [5].
For `Cc1ccc(Cl)cc1NC(=O)Nn1cnnc1`, the 50% inhibitory concentration (IC50) was 1.7 µM (active) at Aspartyl aminopeptidase and > 59.6 µM (not active) against Procathepsin L.
Take `Cc1cccc(NC(=O)C2SC(Nc3c(C)cccc3C)=C(C(=O)N3CCOCC3)C2=N)c1` (centres undefined): the EC50 with Streptococcus [6] is 4.32 µM (active); on Streptokinase A, 3.32 µM (active); in the assay on Streptococcus [7], > 150 µM (not active); in assay [8] it was > 195 µM (not active); in assay [9] it was 0.959 µM (active).
With `Cc1cc(F)ccc1OC1C=CC(c2ccc3c(c2)OCO3)OC1CO` (centres undefined), the AC50 at Cytochrome P450 2D6 was 3.98 µM (inconclusive).
On to `Cc1cc(C)c2nc(SCC(=O)NCCC3=CCCCC3)cc(C)c2c1`, for which the concentration for half-maximal inhibition (IC50) in assay [10] and in [11] was > 39.8 µM (not active) throughout.
On to `Cc1ccc(-c2c3c([nH]c(=S)c2C#N)CCCC3)o1`, for which, in assay [12], the half-maximal effective concentration (EC50) is 6.14 µM (active). Besides, the half-inhibitory concentration (IC50) was 1.72 µM (active) in assay [13], 2.4 µM (active) in assay [14], 35.4 µM (active) at Large T antigen and 1.09 µM (active) in assay [15].
`COc1ccc(N(C(=O)c2ccco2)S(=O)(=O)c2cc(Cl)c(Cl)cc2Cl)cc1`: the IC50 is 11 µM (not active) in assay [16] and > 100 µM (not active) at Ephrin type-A receptor 4. Also, the 50% cytotoxic concentration (CC50) in assay [17] was > 40 µM (active).
For `O=C(CSc1ccc(Cl)cc1)N1c2ccccc2Sc2ccccc21`, the EC50 in the assay on Streptococcus [6] is given as > 500 µM (not active).
As for `Cc1cc(/C=N/NC(=O)c2cccc(F)c2)c(C)n1-c1ccccc1`, the concentration giving a half-maximal response (EC50) in [1] is < 0.1 µM (inconclusive); with H4, > 120 µM (not active); in assay [3] it was 0.217 µM (active); in [4] it was 0.849 µM (active); in [5], 2.7 µM (active).
In the case of `c1ccc(-c2nc(-c3ccco3)[nH]c2-c2ccccc2)cc1`, on NADPH oxidase 1, the concentration for half-maximal inhibition (IC50) is > 17 µM (not active).
As to `COc1cc2ccc(=O)oc2c(O)c1OCC=C(C)C` [CAPENSIN], the AC50 is 25.1 µM (inconclusive) on Cytochrome P450 2D6, 31.6 µM (inconclusive) at Cytochrome P450 2C9 and 12.6 µM (inconclusive) on Cytochrome P450 3A4.

The values are drawn from ChEMBL document CHEMBL1201862, “PubChem BioAssay data set” (2004).
